According to patent publication US5462848A, “Color photographic materials including magenta coupler, inhibitor-releasing coupler and carbonamide compound, and methods” (Eastman Kodak Company, priority 1993, dated 1995):

Assay: Potentiometric titration of dispersion pKa of couplers as aqueous dispersions
Format: physicochemical
Settings: 0.50M potassium counter ion
Excerpt: Preferred two-equivalent magenta dye-forming couplers for the practice of this invention include those that have pKa values of less than 10.0 when dispersed together with a coupler solvent. Potentiometric titrations were used to measure pKa values for some of the preferred couplers of the invention as aqueous dispersions. In these two-phase mixtures, the term pKa denotes the aqueous buffer pH at which half of the coupler in the oil phase is ionized or ion paired. Table I lists dispersion pKa values measured with 0.50M potassium counter ion.

[1] = coupler solvent S2, coupler:solvent 1:2, aqueous dispersion
[2] = coupler solvent C5, coupler:solvent 1:1, aqueous dispersion
[3] = coupler solvent S1, coupler:solvent 1:1, aqueous dispersion

| pKa (0.5M K+) [1] | pKa (0.5M K+) [2] | pKa (0.5M K+) [3] | pKa (0.5M K+) (coupler solvent C1, coupler:solvent 1:2, aqueous dispersion) | Compound |
| --- | --- | --- | --- | --- |
| 7.9 | – | – | – | CCCCCCCCCCCCNS(=O)(=O)c1ccc(NC2=NN(c3c(Cl)cc(Cl)cc3Cl)C(=O)C2Sc2ccccc2NC(=O)CCCCCCCCCCC)c(Cl)c1 (stereo not drawn) [M8] |
| 8.4 | – | – | 8.9 | CCCCCCCCCCCCCCCCCCNS(=O)(=O)c1ccc(Cl)c(NC2=NN(c3c(Cl)cc(Cl)cc3Cl)C(=O)C2Sc2cc(C(C)C)ccc2C(C)C)c1 (stereo not drawn) [M20] |

The remaining lines, values behind:

| Compound | pKa (0.5M K+) [1] | pKa (0.5M K+) [2] | pKa (0.5M K+) [3] | pKa (0.5M K+) (coupler solvent C1, coupler:solvent 1:2, aqueous dispersion) |
| --- | --- | --- | --- | --- |
| CCCCCCCCCCCCNS(=O)(=O)c1ccc(NC2=NN(c3c(Cl)cc(Cl)cc3Cl)C(=O)C2Sc2cc(C(C)(C)CC(C)(C)C)ccc2OCCCC)c(Cl)c1 (stereo not drawn) [M1] | 8.5 | – | – | – |
| CCCCCCCCCCCCCC(=O)Nc1ccc(Cl)c(NC2=NN(c3c(Cl)cc(Cl)cc3Cl)C(=O)C2Sc2ccccc2NC(=O)C(CC)Oc2ccc(C(C)(C)CC)cc2C(C)(C)CC)c1 (stereo not drawn) [M3] | – | 8.2 | 7.9 | – |
| CCCCCCCCCCCCNS(=O)(=O)c1ccc(NC2=NN(c3c(Cl)cc(Cl)cc3Cl)C(=O)C2Sc2ccccc2NC(=O)C(CC)Oc2ccc(C(C)(C)CC)cc2C(C)(C)CC)c(Cl)c1 (stereo not drawn) [M4] | – | 8.0 | 7.6 | – |
| CCCCCCCCCCCCCCCC(=O)Nc1ccc(Cl)c(NC2=NN(c3c(Cl)c(Cl)c(Cl)c(Cl)c3Cl)C(=O)C2Sc2ccccc2NC(=O)OCc2ccccc2)c1 (stereo not drawn) [M7] | 7.5 | – | – | – |
